# In patent publication US10624894B2, “Pharmaceutical product and communication tool” (ScientificMed Sweden AB, priority 2011, dated 2020):
# What was measured:
# [1] = source: EPAR summary for Lyrica; cited from earlier work
# [2] = test system: patients with newly reported Acute Coronary Syndrome (ACS); assay: Study 5: randomized controlled trial, Ticagrelor with QFM (active group) versus Ticagrelor with e-diary (control group); type: in vivo, human
# Description: The study design was two different patient groups with at least eighty patients in each group. The group using the invention, hereafter called the active group, used their own mobile phones to use the QFM described above and the actual drug Ticagrelor. The other group, hereafter called the control group, used their own mobile phones with just an e-diary (control app) and the actual drug Ticagrelor.
# Study design: Randomized Controlled Trial with two different patient groups
# Intervention to evaluate: The invention using the above described QFM in the patients mobile phones, integrated with the actual drug
# Actual used drug: Ticagrelor (Brilique)
# Control: e-diary. The e-diary consisted of the following items and functionalities, enabling data for study evaluation • The questions concerning adherence to the specific drug, being able to answer whether the patient took the drug in the morning and/or in the evening, for the actual day and the day before. • A reminder through a text message if the patient missed to answer the adherence questions during one day
# Patient group: Patients with newly reported Acute Coronary Syndrome (ACS).
# Number of patients in total: 166
# Length of using the invention: Six months
# Primary objective: Assess the non-adherence to the drug according to the prescription recommendation in patients using the invention compared to patients who only use the control-app
# The primary endpoint definition was according to the following: Composite endpoint of adherence failure- or treatment gap events registered by patients • Adherence failure events; • More than 14% missed doses during an observation cycle of 7 days. The first missed dose of the drug initiates an observation cycle of 1 week. If a second missed dose is registered within this week an adherence failure event is registered. The third missed dose initiates a new observation cycle, and the process restarts. • Treatment gap events; • patient reported gaps of more than 4 consecutive doses
# Secondary objectives: Comparison between active group and control group concerning; • Adherence to treatment of the specific drug • Cardiovascular risk factors: • BMI • Physical activity • Blood pressure • LDL-cholesterol • Smoking cessation • Quality of life (EQ5D-VAS)
# The patients with ACS was randomly selected to one of the study arms. After inclusion patients in the active group used the described QFM in relation to the actual drug during the actual period of time.
# [3] = Active group (QFM + Ticagrelor)
# [4] = Control group (e-diary + Ticagrelor)
Compound,Common side-effects which may affect more than 1 person in 100 (among others) [1],Very common side-effects which may affect more than 1 person in 10 [1],"LDL change [2, 3]","Physical activity improvements [2, 3] [%]","Quality of life (EQ5D-VAS) change [2, 3]","Smoking cessation [2, 3] [%]","LDL change [2, 4]","Physical activity improvements [2, 4] [%]","Quality of life (EQ5D-VAS) change [2, 4]","Smoking cessation [2, 4] [%]","BMI; average decrease in weight ([2]; Patients having a BMI >30, group not stated) [%]",patient deaths during the usage of the invention ([2]; six months)
"CC(C)C[C@H](CN)CC(=O)O [A, pregabalin]","dry mouth, nausea","dizziness, tiredness",–,–,–,–,–,–,–,–,–,–
"CCCSc1nc(N[C@@H]2C[C@H]2c2ccc(F)c(F)c2)c2nnn([C@@H]3C[C@H](OCCO)[C@@H](O)[C@H]3O)c2n1 [Ticagrelor, ticagrelor]",–,–,−1.8,50,+14.7,−80,−1.0,32,+8.4,−45,5,No patients in the study died
